Results on 10 compounds are retold here after ChEMBL document CHEMBL1201862, “PubChem BioAssay data set” (2004).

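Step 1: Grow cells in 96-well plates. Step 2: Expose to compound for 48 hours at 5 concentrations. Step 3: Interpolate endpoints linearly; if unreached, use highest concentration. Abbreviation: GI50, concentration required for 50% inhibition of growth.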 Active and inactive are the calls of the source. Rule as the data show it: active = GI50 up to about 1.1 µM and inactive = higher.

Some test systems named below: CAKI-1; CCRF-CEM; COLO 205; HCC 2998; HOP-62; Hs-578T; KM12; LOX IMVI; M14; MDA-N; NCI-H226; NCI-H23; NCI/ADR-RES; PC-3; RPMI-8226; SF-295; SK-MEL-28; SK-MEL-5; SNB-19; UO-31.
Common to all, as to assay: NCI tumour cell line growth inhibition, 48 h

Consider `COCn1c(C)c(C)c2c(=O)oc(C)nc21`, for which the GI50 is 0.288 µM (active) in the experiment with CAKI-1; > 100 µM (inactive) with CCRF-CEM; > 100 µM (inactive) with COLO 205; > 100 µM (inactive) in the experiment with HCC 2998; 70.8 µM (inactive) in the experiment with HOP-62; > 100 µM (inactive) in the experiment with Hs-578T. Besides, the GI50 in the experiment with KM12, with LOX IMVI, in the experiment on M14, in the experiment on MDA-N, in the experiment with NCI-H226 and with NCI-H23 was > 100 µM (inactive) in each case. The GI50 in the experiment with NCI/ADR-RES, in the experiment on PC-3, with RPMI-8226, in the experiment on SF-295, in the experiment on SK-MEL-28 and in the experiment on SK-MEL-5 was > 100 µM (inactive) throughout. For the same compound, the GI50 in the experiment on SNB-19 was > 100 µM (inactive); in the experiment with UO-31 it was 89.1 µM (inactive).
With `O=C1CC(=O)NC(NNS(=O)(=O)c2ccc(Cl)cc2)=N1`, the GI50 in the experiment with CAKI-1 was > 100 µM (inactive); with CCRF-CEM it was 63.1 µM (inactive); in the experiment on COLO 205, > 100 µM (inactive); in the experiment with HCC 2998, > 100 µM (inactive); in the experiment on HOP-62, > 100 µM (inactive); in the experiment with Hs-578T, > 100 µM (inactive). In addition, the GI50 in the experiment with KM12, in the experiment with M14, in the experiment with MDA-N, in the experiment with NCI-H226, with NCI-H23 and with NCI/ADR-RES was > 100 µM (inactive) each time. Also, the GI50 with PC-3, in the experiment with RPMI-8226, with SF-295, with SK-MEL-28, in the experiment on SK-MEL-5 and with SNB-19 was > 100 µM (inactive) throughout. In addition, the GI50 in the experiment on UO-31 is > 100 µM (inactive).
Consider `COC1CC(OC2C(C)OC(OC3C(C)OC(OC4C(O)CC(O[C@H]5CC[C@@]6(C)C(=CC[C@]7(O)[C@@H]6C[C@@H](OC(=O)/C=C/c6ccccc6)[C@@]6(C)[C@]7(O)CC[C@@]6(O)C(C)=O)C5)OC4C)CC3OC)CC2OC)OC(C)C1O` (stereo not given in full), for which the GI50 in the experiment with CAKI-1, in the experiment on CCRF-CEM, with COLO 205, in the experiment on HCC 2998, in the experiment on HOP-62 and in the experiment with Hs-578T was > 6.25 µM (inactive) each time. Besides, the GI50 in the experiment with KM12, with LOX IMVI, in the experiment on M14, with MDA-N, in the experiment on NCI-H226 and in the experiment on NCI-H23 was > 6.25 µM (inactive) in each case. Further, the GI50 with NCI/ADR-RES, in the experiment on PC-3, in the experiment on RPMI-8226, in the experiment on SF-295, in the experiment with SK-MEL-5 and in the experiment on SNB-19 was > 6.25 µM (inactive) each time. Also, the GI50 with UO-31 was 4.52 µM (inactive).
For `CC(=O)C1(C)CC(C#N)(C#N)C(C#N)=C1N` (stereo not given), the GI50 in the experiment with CAKI-1 is 66.8 µM (inactive); in the experiment with CCRF-CEM it was > 100 µM (inactive); in the experiment with COLO 205, > 100 µM (inactive); in the experiment on HCC 2998, > 100 µM (inactive); in the experiment on HOP-62, > 100 µM (inactive); in the experiment with Hs-578T, > 100 µM (inactive). Further, the GI50 with KM12, in the experiment on LOX IMVI, in the experiment with M14, in the experiment with MDA-N, with NCI-H226 and in the experiment on NCI-H23 was > 100 µM (inactive) in each case. The GI50 with NCI/ADR-RES, in the experiment with PC-3, with RPMI-8226, with SF-295, in the experiment with SK-MEL-5 and in the experiment with SNB-19 was > 100 µM (inactive) in each case. Moreover, the GI50 in the experiment with UO-31 is > 100 µM (inactive).
`NCCCCC(NC(=O)C(N)Cc1ccc(O)cn1)C(=O)O` (stereo not given): the GI50 in the experiment with CAKI-1, in the experiment with CCRF-CEM, in the experiment with COLO 205, in the experiment with HCC 2998, in the experiment on HOP-62 and in the experiment with Hs-578T was > 100 µM (inactive) in each case. For the same compound, the GI50 in the experiment with KM12, with LOX IMVI, in the experiment with MDA-N, in the experiment on NCI-H226, in the experiment with NCI-H23 and in the experiment on NCI/ADR-RES was > 100 µM (inactive) throughout. For the same compound, the GI50 with PC-3, in the experiment with RPMI-8226, in the experiment on SF-295, with SK-MEL-28, in the experiment with SK-MEL-5 and with SNB-19 was > 100 µM (inactive) each time. Also, the GI50 with UO-31 was > 100 µM (inactive).
Take `COC(=O)[C@H](Cc1ccccc1)NC(=O)N(CCC#N)CCCCN(CCC#N)C(=O)N[C@@H](Cc1ccccc1)C(=O)OC`: the GI50 in the experiment with CAKI-1, in the experiment with COLO 205, with HCC 2998, in the experiment on HOP-62, in the experiment on Hs-578T and with KM12 was > 100 µM (inactive) each time. Further, the GI50 in the experiment on LOX IMVI, with M14, in the experiment on MDA-N, in the experiment with NCI-H226, in the experiment on NCI-H23 and in the experiment on NCI/ADR-RES was > 100 µM (inactive) each time. Also, the GI50 in the experiment on PC-3, with RPMI-8226, with SF-295, with SK-MEL-28, in the experiment on SK-MEL-5 and with SNB-19 was > 100 µM (inactive) each time. In the experiment with UO-31, the GI50 was > 100 µM (inactive).
With `C(#CP(c1ccccc1)c1ccccc1)P(C#CP(c1ccccc1)c1ccccc1)c1ccccc1`, the GI50 in the experiment on CAKI-1, with CCRF-CEM, with COLO 205, with HCC 2998, with HOP-62 and in the experiment on Hs-578T was > 100 µM (inactive) each time. Moreover, the GI50 was > 100 µM (inactive) in the experiment with KM12; 0.798 µM (active) with M14; > 100 µM (inactive) with MDA-N; > 100 µM (inactive) with NCI-H226; > 100 µM (inactive) in the experiment on NCI/ADR-RES; > 100 µM (inactive) in the experiment with PC-3. Moreover, the GI50 is > 100 µM (inactive) with RPMI-8226; 5.9 µM (inactive) in the experiment on SF-295; > 100 µM (inactive) with SK-MEL-28; > 100 µM (inactive) with SK-MEL-5; > 100 µM (inactive) in the experiment on SNB-19; > 100 µM (inactive) in the experiment on UO-31.
Take `Nc1ncnc2c1ccn2COC(CO)CO`: the GI50 in the experiment with CAKI-1, with CCRF-CEM, with HCC 2998, in the experiment with HOP-62, in the experiment with Hs-578T and in the experiment on KM12 was > 100 µM (inactive) in each case. The GI50 in the experiment with LOX IMVI was > 100 µM (inactive); in the experiment on M14, 79.6 µM (inactive); in the experiment with MDA-N it was > 100 µM (inactive); in the experiment with NCI-H226 it was 46.2 µM (inactive); in the experiment on NCI-H23 it was > 100 µM (inactive); in the experiment on NCI/ADR-RES, > 100 µM (inactive). In addition, the GI50 was > 100 µM (inactive) in the experiment on PC-3; 97.1 µM (inactive) in the experiment on RPMI-8226; > 100 µM (inactive) in the experiment on SF-295; > 100 µM (inactive) with SK-MEL-28; > 100 µM (inactive) in the experiment with SK-MEL-5; > 100 µM (inactive) in the experiment with SNB-19. Further, the GI50 in the experiment on UO-31 is > 100 µM (inactive).
As to `C/C(=N\NC(=S)Nc1ccc(C)cc1)c1nc2cccnc2[nH]1`, the GI50 was 1.84 µM (inactive) in the experiment with CAKI-1; 0.452 µM (active) in the experiment with CCRF-CEM; 3.9 µM (inactive) in the experiment with COLO 205; 5.47 µM (inactive) with HCC 2998; 3.17 µM (inactive) with HOP-62; 10.8 µM (inactive) with Hs-578T. Further, the GI50 with KM12 was 7.6 µM (inactive); with LOX IMVI it was 1.41 µM (inactive); in the experiment on MDA-N it was 4.63 µM (inactive); in the experiment on NCI-H226 it was 1.78 µM (inactive); in the experiment with NCI-H23, 2.65 µM (inactive); in the experiment with NCI/ADR-RES, 4.04 µM (inactive). For the same compound, the GI50 in the experiment with PC-3 was 1.73 µM (inactive); with RPMI-8226, 3.01 µM (inactive); with SF-295, 3.07 µM (inactive); in the experiment on SK-MEL-28 it was 2.86 µM (inactive); in the experiment with SK-MEL-5 it was 1.76 µM (inactive); in the experiment on SNB-19, 3.2 µM (inactive). Moreover, in the experiment with UO-31, the GI50 was 0.649 µM (active).
With `C=C1C(C[C@@H]2O[C@H]3C[C@H]4O[C@@]5(C[C@@H]6O[C@]7(C[C@H](C)[C@@H]8O[C@@H]9CC(C(O)CO)O[C@@H]9C[C@@H]8O7)C[C@H](C)[C@@H]6O5)C[C@H]4O[C@H]3[C@H](C)[C@H]2O)O[C@@H](CC[C@@H]2O[C@@H](CC[C@@]34CC5O[C@H]6C(O[C@H]7CC[C@H](CC(=O)OC)O[C@@H]7[C@@H]6O3)[C@H]5O4)CC2=C)C[C@H]1C` (stereo not given in full), the GI50 is 0.000286 µM (active) with CAKI-1; < 0.0001 µM (active) with CCRF-CEM; < 0.0001 µM (active) in the experiment with COLO 205; < 0.0001 µM (active) in the experiment with HCC 2998; 0.000396 µM (active) in the experiment on HOP-62; < 0.0001 µM (active) with Hs-578T. Also, the GI50 with KM12 was < 0.0001 µM (active); in the experiment on LOX IMVI, < 0.0001 µM (active); in the experiment with M14, 0.000124 µM (active); in the experiment with MDA-N it was < 0.0001 µM (active); with NCI-H226, 0.000174 µM (active); with NCI-H23 it was < 0.0001 µM (active). Besides, the GI50 is 0.00466 µM (active) in the experiment with NCI/ADR-RES; < 0.0001 µM (active) in the experiment with PC-3; < 0.0001 µM (active) with RPMI-8226; < 0.0001 µM (active) in the experiment with SF-295; < 0.0001 µM (active) with SK-MEL-5; 0.000304 µM (active) in the experiment on SNB-19. Further, the GI50 in the experiment with UO-31 was 0.000904 µM (active).
